{"source": "patent US20210156868A1", "about": "“COMPOSITIONS AND METHODS FOR DETECTING ALBUMIN” (Tournament BioVenture LLC, priority 2019, published 2021)", "key": {"Solubility in water": {"experiment": "Solubility in water", "assay_type": "physicochemical"}, "albumin": {"molecular_target": "albumin (Homo sapiens, UniProt P02768)", "sequence (P02768 25-609)": "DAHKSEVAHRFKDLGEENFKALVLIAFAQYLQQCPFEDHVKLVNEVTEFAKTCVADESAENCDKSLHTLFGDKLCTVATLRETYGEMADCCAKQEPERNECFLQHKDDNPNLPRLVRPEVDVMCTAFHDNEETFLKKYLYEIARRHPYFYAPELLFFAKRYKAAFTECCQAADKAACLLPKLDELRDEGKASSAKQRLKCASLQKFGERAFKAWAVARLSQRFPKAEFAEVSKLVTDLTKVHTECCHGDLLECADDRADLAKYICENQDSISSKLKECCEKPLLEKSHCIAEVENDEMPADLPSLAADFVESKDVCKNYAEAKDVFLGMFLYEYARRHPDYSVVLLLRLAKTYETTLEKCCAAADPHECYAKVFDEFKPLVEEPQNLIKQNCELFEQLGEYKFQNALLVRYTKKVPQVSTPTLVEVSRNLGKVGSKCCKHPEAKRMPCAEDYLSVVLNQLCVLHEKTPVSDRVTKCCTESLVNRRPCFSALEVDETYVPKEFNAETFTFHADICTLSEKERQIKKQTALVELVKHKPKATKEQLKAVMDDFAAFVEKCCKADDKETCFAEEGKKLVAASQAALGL", "experiment": "Effects of solvent and additives on pseudo-lipase activity of albumin (FIG. 13)", "assay_type": "biochemical", "text": "Dimethyl sulfoxide (DMSO), EDTA and Tween-20 had been used to determine the tolerable concentration of organic solvent."}, "HSA pseudo esterase": {"molecular_target": "HSA pseudo esterase (Homo sapiens, UniProt P02768)", "sequence (P02768 25-609)": "as above", "experiment": "Michaelis-Menten kinetics of HSA pseudo esterase (FIG. 3)", "assay_type": "biochemical", "conditions": "14:0 NPS-PC as probe"}, "[1]": {"test_system": "non-albumin esterase activity (PLA2 activity in human serum, associated with LDL or HDL)", "experiment": "Inhibition of non-albumin esterase (PLA2) activity with 14:0 NPS-PC as probe (FIG. 4)", "assay_type": "biochemical", "conditions": "for sensitivity of non-albumin (LDL/HDL, PLA2) esterase activity compared to pseudo esterase activity of albumin: human serum, 14:0 NPS-PC probe", "protocol": "The reaction was started by the addition of 110 μl of TBS reaction buffer (10 mM Tris-HCl, 150 mM NaCl, pH 7.4) containing […] 14:0 NPS-PC and 5 mM EDTA to 20 μl of HSA solution in a well of a 96-well plate. The reactions were followed at wavelength 405 nm (absorbance) in a SPECTRAmax M5 plate reader.\nAs shown in EXAMPLE 1, using 14:0 NPS-PC as probe also identified non-albumin esterase activity, i.e. PLA2 activity in human serum, which is mainly associated with HDL and LDL. […] Pefabloc at 15-20 mM (final concentration) can eliminate all non-albumin esterase activity but maintain >90% of albumin esterase activity when assayed with 1.5 mM 14:0 NPS-PC at pH 7.4."}, "[2]": {"test_system": "non-HSA esterase activity associated with HDL", "experiment": "Inactivation of HDL-associated esterase activity on incubation with Pefabloc SC (FIG. 5)", "assay_type": "biochemical, human", "conditions": "2 mM Pefabloc SC"}, "[3]": {"test_system": "human serum non-HSA esterase activity", "experiment": "Inactivation of non-HSA esterase activity in mix of 20 human sera (FIG. 6, FIG. 7)", "assay_type": "biochemical", "conditions": "1 mM Pefabloc SC, 24° C., hydrochloride", "protocol": "When human serum was incubated with 1 mM Pefabloc, the non-HSA esterase activity can be abolished in about 10 minutes."}, "[4]": {"molecular_target": "HSA pseudo esterase activity (Homo sapiens, UniProt P02768)", "sequence (P02768 25-609)": "as above", "conditions": "2 mM Pefabloc SC incubation; HSA 44 mg/ml in TBS, pH 7.4; hydrochloride"}, "Ca^2+ dependent PLA2": {"test_system": "Ca^2+ dependent PLA2", "conditions": "5 mM in the assay buffer"}}, "note": "“Also recorded” adds a separate entry of the source."}
{"smiles": "CCN(CC)CCN(Cc1ccc(-c2ccc(C(F)(F)F)cc2)cc1)C(=O)Cn1c(SCc2ccc(F)cc2)nc(=O)c2c1CCC2", "note": "[darapladib]", "values": [{"measurement": "solubility in water", "setting": "Solubility in water", "value": "insoluble in water"}]}
{"smiles": "C[S+](C)[O-]", "note": "[DMSO, Dimethyl sulfoxide]", "values": [{"measurement": "effect on the assay of albumin", "setting": "albumin", "value": "does not have effects"}]}
{"smiles": "CCCCCCCCCCCCCC(=O)OC[C@H](COP(=O)([O-])OCC[N+](C)(C)C)OC(=O)CCC(=O)Oc1ccc([N+](=O)[O-])cc1", "note": "[14:0 NPS-PC, 1-myristoyl-2-(4-nitrophenylsuccinyl)-sn-glycero-3-phosphocholine]", "values": [{"measurement": "Km in the pseudo esterase reaction of HSA", "setting": "HSA pseudo esterase", "value": "relative low Km"}]}
{"smiles": "Cl.NCCc1ccc(S(=O)(=O)F)cc1", "note": "[Pefabloc SC, 4-(2-aminoethyl)benzenesulfonyl fluoride hydrochloride]", "values": [{"measurement": "sensitivity of non-albumin (LDL/HDL, PLA2) esterase activity compared to pseudo esterase activity of albumin", "setting": "[1]", "value": "much more sensitive"}, {"measurement": "non-albumin esterase activity", "setting": "[1]; inhibitor 15-20 mM final concentration, 1.5 mM 14:0 NPS-PC, pH 7.4", "value": "eliminate all"}, {"measurement": "non-HSA esterase activity associated with HDL depleted", "setting": "[2]; 6 hr of incubation, HDL 2.5 mg/ml of cholesterol", "value": "About 80%"}, {"measurement": "incubation time to complete inactivation of HDL-associated esterase activity", "setting": "[2]; purified HDL", "value": "6 to 10", "unit": "h"}, {"measurement": "incubation time to complete inactivation of human serum non-HSA esterase activity", "setting": "[3]", "value": "about 15 min"}, {"measurement": "incubation time to complete inactivation of human serum non-HSA esterase activity", "setting": "[3]; listed as Pefabloc", "value": "about 10 min"}, {"measurement": "inactivation of HSA pseudo esterase activity", "setting": "[4]", "value": "No inactivation; also recorded: no activity loss"}]}
{"smiles": "O=S(=O)(F)Cc1ccccc1", "note": "[PMSF, phenylmethylsulfonyl fluoride]", "values": [{"measurement": "sensitivity of non-albumin (LDL/HDL, PLA2) esterase activity compared to pseudo esterase activity of albumin", "setting": "[1]", "value": "much more sensitive"}]}
{"smiles": "O=C(O)CN(CCN(CC(=O)O)CC(=O)O)CC(=O)O", "note": "[EDTA]", "values": [{"measurement": "activity of Ca^2+ dependent PLA2 towards 14:0 NPS-PC", "setting": "Ca^2+ dependent PLA2", "value": "suppresses"}]}
